Consider 79 compounds from the METLIN SMRT retention time set (Domingo-Almenara et al. 2019).

A short description of this data set: gradient 5% acetonitrile 3 min, to 50% in 2 min, to 85% in 15 min, held 3 min, 100 µL/min. The conditions noted are these: column: Zorbax Extend-C18 2.1 x 50 mm; eluents: water / acetonitrile, 0.1% formic acid. The method in brief: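 A Zorbax Extend-C18 column (2.1 × 50 mm, 1.8 μm) run at 100 μL/min with water and acetonitrile, both containing 0.1% formic acid, separated mixtures of ~100 pure standards. The HPLC was coupled to a quadrupole time-of-flight mass spectrometer operated in positive and negative ionization mode, with dead and dwell volumes of 40 μL and 900 μL. Each retention time was taken from a computationally picked adduct peak that was then manually inspected.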
With `Cc1ccc(-c2nc3cnccn3c2Nc2cccc(Cl)c2C)cc1`, the RP-LC retention time is 1080 s.

`O=C(Nc1ccc(-c2cn3ccccc3n2)cc1)c1ccc([N+](=O)[O-])cc1` showed an RP-LC retention time of 586 s. In turn, `COc1ccc(-c2noc(C3CC(=O)N(c4ccc(C(C)C)cc4)C3)n2)cc1OC` (centres undefined) yielded an RP-LC retention time of 870 s. The compound `COc1ccc(C)cc1NC(=O)C1CC(=O)N(c2ccc3c(c2)CCN3C(=O)C2CC2)C1` (centres undefined) came in with an RP-LC retention time of 836 s. In turn, `Cc1ccc(NC(=O)Cn2c(C(C)C)nc3c(c2=O)CCN(Cc2ccccc2)C3)cc1C` gave an RP-LC retention time of 761 s. For `CCn1nnc(NCc2ccc(-c3cc(Cl)ccc3Cl)o2)n1`, the RP-LC retention time was 1110 s. The figure for `CCS(=O)(=O)N1CCCC(Cn2cc(COc3ccc4c(c3)CCC4)nn2)C1` (centres undefined) is 963 s. The figure for `O=C(Nc1nccs1)C(=O)c1c(-c2ccccc2)cc2ccccn12` is 866 s; for `Cc1ccccc1CN1C[C@@H]2C(=O)N(Cc3ccc4c(c3)OCO4)C(=O)[C@@H]2C1` it is 824 s.

`Cc1ccc(NC(=O)N2CCC(OC3CCN(S(C)(=O)=O)CC3)CC2)c(C)c1` displayed an RP-LC retention time of 743 s. As for `O=C(NC1CC1)c1ncoc1-c1ccccc1C(=O)N1CCCCC1`, the figure is 689 s; as for `Cc1nnc(-c2ccc3ccn(CC(=O)N4CCN(C5CCCCC5)CC4)c3c2)o1`, 620 s. The figure for `O=C(Cc1csc(NC(=O)NC2CCCCC2)n1)NCc1c(F)cccc1F` is 737 s; for `Cc1cccc(CNC(=O)C2CCN(S(=O)(=O)c3ccc4c(c3)sc(=O)n4C(C)C)CC2)c1` it is 985 s; for `Cc1cc(C)c(S(=O)(=O)N2CC(c3nc(Cc4ccccc4)no3)C2)cc1C` it is 1190 s. The figure for `CCCCn1cc(S(=O)(=O)Nc2ccccc2C)c2cccnc21` is 985 s. Consider `O=C(NCC(=O)N1CCCc2ccccc21)c1cccc2[nH]ccc12`, for which the RP-LC retention time was 773 s. As for `COc1ccc(-c2cn3cccnc3n2)cc1NC(=O)c1cccc(Br)c1`, the figure is 748 s; as for `O=C(c1c(F)cccc1F)N1CCC2(CC1)N=C(c1ccc(Cl)cc1)NO2`, 847 s; as for `O=C(NC1CC1)c1ccc(OCC2CCN(C(=O)c3ccc(F)c(Cl)c3)CC2)cc1`, 870 s. As for `c1cc(-c2nc(-c3ccc(OC4CNC4)cc3)no2)ccn1`, the figure is 604 s. The figure for `CCN1c2cc(Cl)ccc2C(=O)NC12CCN(C(=O)Nc1ccc(C)cc1C)CC2` is 968 s; for `Cc1ccc(Sc2nccnc2N2CCCC(C(=O)NCc3ccc(F)cc3F)C2)cc1` (centres undefined) it is 1130 s. In turn, `COc1cccc(-n2cc(C(=O)O)nn2)c1` yielded an RP-LC retention time of 682 s.

Compound `COC(=O)C(Cc1ccccc1)NC(=O)N1CCCn2nc(-c3ccncc3)cc2C1` (centres undefined) had an RP-LC retention time of 616 s.

In turn, `O=C(NCC1CCS(=O)(=O)C1)c1nc2ccccc2s1` (centres undefined) had an RP-LC retention time of 659 s. The figure for `Cc1noc(-c2ccc(NC(=O)c3cccs3)cc2)n1` is 776 s. The figure for `O=C(CN1CCC(c2nc(-c3cccc(F)c3)no2)CC1)NC1CCCCC1` is 705 s. The figure for `Cc1cc2c(cc1S(=O)(=O)N1CCCC1C(=O)N1CCOCC1)OC(C)C(=O)N2` (centres undefined) is 638 s; for `COCc1noc(CC2CCOC3(CCN(Cc4sccc4C)CC3)C2)n1` (centres undefined) it is 636 s; for `Cc1ccc(CNC(=O)C2CCCN(S(=O)(=O)c3cc(-c4noc(C)n4)cs3)C2)o1` (centres undefined) it is 864 s. The compound `O=C(NCc1ccc(F)c(Cl)c1)C1CCN(C(=O)c2ncn3c2COC(c2ccccc2)C3)CC1` (centres undefined) gave an RP-LC retention time of 842 s. The figure for `O=C(NCc1ccccc1Br)c1ccc(-c2cccnc2)nc1` is 697 s; for `Cc1ccc(N2CN(CC(=O)Nc3cccc(Cl)c3)S(=O)(=O)c3cccnc32)cc1` it is 1030 s. `CCCNS(=O)(=O)c1ccc(Cl)c(-c2nnc(-c3ccc(OC)cc3)o2)c1` came in with an RP-LC retention time of 1010 s. The figure for `CCCn1cc(C2=CCN(S(=O)(=O)c3cc(OC)ccc3OC)CC2)c2cccnc21` is 728 s. As for `CC1CCCN(C(=O)c2cn(-c3cc(-c4nc(C(C)C)no4)ccn3)cn2)C1` (centres undefined), the figure is 955 s; as for `COCCN1C(=O)c2cccn2CC1CNS(=O)(=O)c1ccc2c(c1)C(C)(C)C(=O)N2` (centres undefined), 652 s. `CS(=O)(=O)N1CCC(C2CCN(Cc3ccccc3C#N)C2)CC1` (centres undefined) displayed an RP-LC retention time of 590 s.

For the compound `O=C(c1ccc(F)cc1)N1CCN(c2nc(CN3CCOCC3)cs2)CC1`, the RP-LC retention time was 597 s. For the compound `Cc1cccc(C)c1OCC(O)Cn1c(C2CC2)nc2ccccc21` (centres undefined), the RP-LC retention time was 710 s.

Take `Cc1nnc(-c2nnc(NCc3ccccc3Cl)c3ccccc23)o1`: the RP-LC retention time was 909 s. For `O=C(CCn1nnc2cc(-c3noc(-c4ccccc4Br)n3)ccc21)N1CCOCC1`, the RP-LC retention time amounted to 896 s. The figure for `O=C(Nc1ccc(C(=O)O)c(O)c1)c1cc2ccccc2c(=O)o1` is 770 s. As for `CCn1cnc(S(=O)(=O)N2CCCC(C(=O)Nc3ccc(C)c(C)c3)C2)c1` (centres undefined), the RP-LC retention time was found to be 800 s. The figure for `Cc1ccccc1CNC(=O)C1=C2CCCN2c2ccccc2S1(=O)=O` is 873 s; for `Cc1cc(Nc2ccc(NC(=O)Nc3ccccc3)cc2)nc(N2CCOCC2)n1` it is 662 s; for `COc1ccc(Cl)cc1NS(=O)(=O)c1cc(-c2nc(C(C)(C)C)cs2)cs1` it is 1350 s. In turn, `CCOc1cccc(-c2noc(-c3nnn4c3COC(c3ccc(C)cc3C)C4)n2)c1` (centres undefined) came in with an RP-LC retention time of 643 s. As for `CC(C)NC(=O)NCCC1CCN(S(=O)(=O)c2ccccc2)CC1`, the figure is 732 s. `CCOc1ccc(CC(=O)Nc2nc(-c3cccs3)cs2)cc1` gave an RP-LC retention time of 963 s. The figure for `O=C(c1ccc(-c2cccnc2)nc1)N1CCN(c2ccccc2F)CC1` is 688 s; for `O=C(Cn1nc(C(=O)N2CCOCC2)c2ccccc21)N1CCN(c2ccccn2)CC1` it is 594 s; for `O=C(NCc1ccc(C(F)(F)F)cc1)C1CCN(c2nnc3ccc(Cl)cn23)CC1` it is 718 s. The figure for `O=C(Cc1ccc(F)cc1)Nc1ccc(-c2ccc3nncn3n2)cc1` is 676 s; for `COc1cccc(Cn2cc(S(=O)(=O)N3CCCCCC3)ccc2=O)c1` it is 895 s; for `Cc1ccc(NC(=O)C2CCCN(c3nccnc3Sc3ccc(C)cc3)C2)cc1` (centres undefined) it is 1200 s. In the case of `O=C(NCC1CCCCC1)c1ccc(NC(=O)C2CCC2)cc1N1CCOCC1`, the RP-LC retention time stood at 930 s. `Cc1ccc(Cn2cc(-c3ccncc3)cc2C(=O)NCc2ccc(C)o2)cc1` returned an RP-LC retention time of 734 s. As for `Cc1noc(C)c1CN1CCN(C(=O)Cn2c(=O)oc3ccccc32)CC1`, the figure is 550 s. Compound `O=C(NCCCN1CCOCC1)C1CCCN(c2ncc(-c3cccc(F)c3)cn2)C1` (centres undefined) displayed an RP-LC retention time of 653 s. As for `CCCN(CCC)C(=O)C1CCCN(c2ncnc3c2nc2n3CCCCC2)C1` (centres undefined), the figure is 836 s; as for `CCCn1cc(C(=O)Nc2ccc(F)cc2)c(S(=O)(=O)N2CCSCC2)n1`, 1030 s; as for `CCC(=O)N1CCc2cc(-c3ccc(C(=O)NCCc4c(C)noc4C)cc3)ccc21`, 750 s. The figure for `COCCCn1c(=O)c2ccccc2n(Cc2nc(-c3ccc(OC)cc3OC)no2)c1=O` is 884 s. The figure for `CN(CC1(C)CCOCC1)S(=O)(=O)c1ccc(Cl)s1` is 976 s; for `CCOC(=O)C1CCN(C(=O)c2cc(CC)n3nc(-c4ccco4)cc3n2)CC1` it is 886 s; for `Cc1cc(C)c(NS(=O)(=O)c2ccc(Cl)c(C(=O)O)c2)c(C)c1` it is 829 s.

For `CN(Cc1ccccc1)C(=O)c1cn2ccncc2n1`, the RP-LC retention time was determined as 678 s. The figure for `CC1=C(c2ccccc2)S(=O)(=O)N=C1N1CCCN(C(=O)Nc2ccccc2F)CC1` is 811 s; for `COc1cc(OC)c(NC(=O)C2CCN(C(=O)c3cc(-c4ccncc4)n[nH]3)CC2)cc1Cl` it is 611 s; for `O=S(=O)(c1cc(-c2nnc(C3CC3)o2)co1)N1CCN(c2ccccn2)CC1` it is 640 s. As for `Cc1ccccc1NC(=O)NCCCn1c(C(F)(F)F)nc2cccnc21`, the figure is 761 s.

`CC(C)N1C(=O)C(C)(C(=O)Nc2ccc(F)c(Cl)c2)Oc2cccnc21` (centres undefined) gave an RP-LC retention time of 1070 s. The figure for `CC(CCc1ccccc1)NC(=O)C1CCN(C(=O)C2Sc3ccccc3NC2=O)CC1` (centres undefined) is 811 s. The figure for `O=C(C1CC1)N1CCC(COCc2ccccc2)CC1` is 831 s; for `Cc1nc(-c2ccc3c(c2)CCN3C(=O)COc2ccc(Cl)cc2)cs1` it is 1080 s. The figure for `CCN(CC)C(=O)c1cnc2nc(C)ccc2c1Nc1ccc(CC(=O)O)cc1` is 1020 s; for `CSc1ccc(CNC(=O)c2cn3ccc(C)cc3n2)cc1` it is 699 s.
